Values quoted from earlier work as cited in paper PMC2222665, “The dimerization domain of HIV-1 viral infectivity factor Vif is required to block virion incorporation of APOBEC3G” (Retrovirology, 2007).

System: HIV-1
Set-up: method as in PMID 1708976
Conditions: ref [45],[46]

SMILES: Cc1cn([C@H]2C[C@H](N=[N+]=[N-])[C@@H](CO)O2)c(=O)[nH]c1=O [AZT]
- IC95 of HIV-1 infectivity: 5 µM
